# Legend:
# [1] = Drug metabolism in human liver microsomes assessed as […]-mediated (2S,3S,4S,5R,6S)-6-(2-(4-(4-(tert-butylcarbamoyl)-2-(2-chloro-4-cyclopropylphenylsulfonamido)phenoxy)-5-chloro-2-fluorophenyl)acetoxy)-3,4,5-trihydroxytetrahydro-2H-pyran-2-carboxylic acid formation after 15 mins by LC-MS/MS analysis in presence of UDPGA; assay type: ADME; settings: 0.25 h
# CYP1A2 = test: Upregulation of CYP1A2 mRNA expression in human hepatocytes at 0.3 to 30 uM treated every 24 hrs for 2 days measured on day 5 relative to control; assay type: ADME, cell-based, Hepatocyte; settings: read-out: FC
# Cytochrome P450 3A4 = Cytochrome P450 3A4 (Homo sapiens, UniProt P08684); test: Drug metabolism assessed as recombinant CYP3A4 (unknown origin)-mediated 2-(5-chloro-4-(2-(2-chloro-4-cyclopropylphenylsulfonamido)-4-(1-hydroxy-2-methylpropan-2-ylcarbamoyl)phenoxy)-2-fluorophenyl)acetic acid formation at 10 uM after 30 mins by LC-MS/MS analysis; assay type: ADME; settings: recombinant enzyme, 0.5 h
# Chain of Cytochrome P450 3A4 (P08684 whole entry): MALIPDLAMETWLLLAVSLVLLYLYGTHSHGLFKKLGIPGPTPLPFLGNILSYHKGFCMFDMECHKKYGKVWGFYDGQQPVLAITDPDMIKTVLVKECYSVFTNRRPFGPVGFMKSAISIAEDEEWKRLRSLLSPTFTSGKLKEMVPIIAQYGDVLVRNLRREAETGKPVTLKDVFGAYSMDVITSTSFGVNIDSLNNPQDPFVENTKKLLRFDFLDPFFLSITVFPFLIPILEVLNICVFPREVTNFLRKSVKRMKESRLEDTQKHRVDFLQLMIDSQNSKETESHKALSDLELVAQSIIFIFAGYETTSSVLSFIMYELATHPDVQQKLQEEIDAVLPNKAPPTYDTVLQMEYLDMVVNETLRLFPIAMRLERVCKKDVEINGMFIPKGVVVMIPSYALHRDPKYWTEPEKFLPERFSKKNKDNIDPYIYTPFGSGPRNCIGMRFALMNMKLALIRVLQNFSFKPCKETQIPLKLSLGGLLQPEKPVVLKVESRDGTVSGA
# CYP2B6 = test: Upregulation of CYP2B6 mRNA expression in human hepatocytes at 0.3 to 30 uM treated every 24 hrs for 2 days measured on day 5 relative to control; assay type: ADME, cell-based, Hepatocyte; settings: read-out: FC
# [2] = Cmax in healthy human at 50 mg, po in presence of ketoconazole; assay type: ADME, organism-based; design: dose 50 mg, route oral; settings: in vivo
# Cytochrome P450 3A5 = Cytochrome P450 3A5 (Homo sapiens, UniProt P20815); test: Drug metabolism assessed as recombinant CYP3A5 (unknown origin)-mediated 2-(4-(4-(tert-butylcarbamoyl)-2-(2-chloro-4-(1-hydroxycyclopropyl)phenylsulfonamido)phenoxy)-5-chloro-2-fluorophenyl)acetic acid formation at 10 uM after 30 mins by LC-MS/MS analysis; assay type: ADME; settings: recombinant enzyme, 0.5 h
# Chain of Cytochrome P450 3A5 (P20815 whole entry): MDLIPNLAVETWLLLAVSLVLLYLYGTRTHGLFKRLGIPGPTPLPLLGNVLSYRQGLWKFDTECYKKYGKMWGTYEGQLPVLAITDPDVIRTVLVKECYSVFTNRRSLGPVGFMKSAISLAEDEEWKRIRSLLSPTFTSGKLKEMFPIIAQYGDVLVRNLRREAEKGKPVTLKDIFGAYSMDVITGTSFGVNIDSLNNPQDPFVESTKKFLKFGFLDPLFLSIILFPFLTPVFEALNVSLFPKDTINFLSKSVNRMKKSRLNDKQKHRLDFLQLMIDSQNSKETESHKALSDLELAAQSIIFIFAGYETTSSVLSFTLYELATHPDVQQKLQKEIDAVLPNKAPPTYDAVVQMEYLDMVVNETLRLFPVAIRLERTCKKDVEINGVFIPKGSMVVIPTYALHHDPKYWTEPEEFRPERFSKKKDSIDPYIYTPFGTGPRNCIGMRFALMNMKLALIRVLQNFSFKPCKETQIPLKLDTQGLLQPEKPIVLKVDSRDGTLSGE
# [3] = biological target: UDP-glucuronosyltransferase 1A6 (Homo sapiens, UniProt P19224); test: (§1) Drug metabolism assessed as human recombinant UGT1A6-mediated (2S,3S,4S,5R,6S)-6-(2-(4-(4-(tert-butylcarbamoyl)-2-(2-chloro-4-cyclopropylphenylsulfonamido)phenoxy)-5-chloro-2-fluorophenyl)acetoxy)-3,4,5-trihydroxytetrahydro-2H-pyran-2-carboxylic acid formation at 10 uM after 30 mins by LC-MS/MS analysis; assay type: ADME; settings: recombinant enzyme, 0.5 h
# Chain of UDP-glucuronosyltransferase 1A6 (P19224 whole entry): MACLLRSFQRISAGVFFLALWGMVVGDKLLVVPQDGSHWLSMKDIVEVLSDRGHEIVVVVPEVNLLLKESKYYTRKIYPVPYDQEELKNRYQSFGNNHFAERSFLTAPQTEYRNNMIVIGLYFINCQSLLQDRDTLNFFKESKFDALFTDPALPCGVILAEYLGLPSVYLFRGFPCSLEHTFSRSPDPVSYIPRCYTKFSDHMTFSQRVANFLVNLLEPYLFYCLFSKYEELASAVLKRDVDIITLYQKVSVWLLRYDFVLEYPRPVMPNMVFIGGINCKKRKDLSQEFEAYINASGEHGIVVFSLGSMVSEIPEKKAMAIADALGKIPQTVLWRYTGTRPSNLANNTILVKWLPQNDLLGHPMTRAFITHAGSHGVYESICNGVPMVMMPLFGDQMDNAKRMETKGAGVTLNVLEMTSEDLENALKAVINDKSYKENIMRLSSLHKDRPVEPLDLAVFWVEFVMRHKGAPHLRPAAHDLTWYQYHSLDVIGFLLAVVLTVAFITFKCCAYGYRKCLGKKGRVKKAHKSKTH
# [4] = biological target: UDP-glucuronosyltransferase 2B17 (Homo sapiens, UniProt O75795); test: as §1, with “UGT2B17-mediated” for “UGT1A6-mediated”; assay type: ADME; settings: recombinant enzyme, 0.5 h
# Chain of UDP-glucuronosyltransferase 2B17 (O75795 whole entry): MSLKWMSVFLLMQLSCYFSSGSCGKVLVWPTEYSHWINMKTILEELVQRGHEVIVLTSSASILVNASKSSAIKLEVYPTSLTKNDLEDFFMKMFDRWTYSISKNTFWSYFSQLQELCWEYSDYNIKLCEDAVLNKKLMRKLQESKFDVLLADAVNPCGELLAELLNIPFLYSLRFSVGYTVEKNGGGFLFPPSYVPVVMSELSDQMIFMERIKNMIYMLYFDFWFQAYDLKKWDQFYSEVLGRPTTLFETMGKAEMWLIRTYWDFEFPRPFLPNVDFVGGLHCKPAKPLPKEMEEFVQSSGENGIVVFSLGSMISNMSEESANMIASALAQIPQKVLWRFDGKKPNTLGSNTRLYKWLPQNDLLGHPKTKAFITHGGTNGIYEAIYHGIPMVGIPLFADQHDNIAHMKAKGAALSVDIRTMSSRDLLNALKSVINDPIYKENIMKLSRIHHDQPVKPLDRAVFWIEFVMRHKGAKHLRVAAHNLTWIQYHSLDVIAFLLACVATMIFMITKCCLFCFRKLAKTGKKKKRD
# CYP3A4 = CYP3A4 (Homo sapiens, UniProt P08684); test: Induction of CYP3A4 in human hepatocytes using midazolam as substrate at 0.3 to 30 uM treated every 24 hrs for 2 days measured on day 5 by LC-MS/MS analysis relative to control
# Chain of CYP3A4 (P08684 whole entry): as the sequence (P08684 whole entry) above
# [5] = biological target: T1, UDP-glucuronosyltransferase 1A1 (Homo sapiens, UniProt P22309); test: as §1, with “UGT1A1-mediated” for “UGT1A6-mediated”; assay type: ADME; settings: recombinant enzyme, 0.5 h
# T1 sequence (P22309 whole entry): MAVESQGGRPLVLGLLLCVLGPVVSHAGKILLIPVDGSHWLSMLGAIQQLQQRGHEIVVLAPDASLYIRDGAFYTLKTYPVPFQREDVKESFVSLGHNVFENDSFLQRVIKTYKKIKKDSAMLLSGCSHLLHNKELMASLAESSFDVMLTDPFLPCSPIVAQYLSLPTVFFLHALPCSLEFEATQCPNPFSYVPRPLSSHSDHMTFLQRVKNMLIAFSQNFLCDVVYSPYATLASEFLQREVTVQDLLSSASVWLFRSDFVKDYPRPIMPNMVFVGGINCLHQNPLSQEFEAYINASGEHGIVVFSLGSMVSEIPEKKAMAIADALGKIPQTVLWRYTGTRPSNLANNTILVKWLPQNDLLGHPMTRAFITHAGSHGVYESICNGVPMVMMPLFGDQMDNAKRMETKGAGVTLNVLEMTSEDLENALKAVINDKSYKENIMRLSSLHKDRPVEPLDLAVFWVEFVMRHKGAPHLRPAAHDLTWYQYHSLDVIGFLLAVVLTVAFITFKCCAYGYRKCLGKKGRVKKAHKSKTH
# [6] = biological target: T2, UDP-glucuronosyltransferase 2B7 (Homo sapiens, UniProt P16662); test: Drug metabolism assessed as human recombinant UGT2B7-mediated compound formation treated with AMG 853 at 10 uM after 30 mins by LC-MS/MS analysis; assay type: ADME; settings: recombinant enzyme, 0.5 h
# T2 sequence (P16662 whole entry): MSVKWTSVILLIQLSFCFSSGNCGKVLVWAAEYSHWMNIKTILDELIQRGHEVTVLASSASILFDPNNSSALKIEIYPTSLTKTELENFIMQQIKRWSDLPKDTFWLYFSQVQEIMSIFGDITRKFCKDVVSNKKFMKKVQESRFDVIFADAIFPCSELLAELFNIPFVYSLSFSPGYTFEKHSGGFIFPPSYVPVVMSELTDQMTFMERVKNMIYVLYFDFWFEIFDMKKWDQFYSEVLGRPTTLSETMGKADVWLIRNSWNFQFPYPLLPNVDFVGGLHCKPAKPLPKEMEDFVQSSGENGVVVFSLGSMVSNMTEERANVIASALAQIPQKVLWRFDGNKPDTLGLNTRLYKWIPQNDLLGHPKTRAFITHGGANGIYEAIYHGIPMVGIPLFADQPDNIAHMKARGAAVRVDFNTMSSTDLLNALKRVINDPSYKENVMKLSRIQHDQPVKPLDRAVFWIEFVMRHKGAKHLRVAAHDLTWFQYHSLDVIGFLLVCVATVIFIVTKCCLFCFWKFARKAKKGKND
# [7] = biological target: T3, UDP-glucuronosyltransferase 1A3 (Homo sapiens, UniProt P35503); test: Drug metabolism assessed as human recombinant UGT1A3-mediated compound formation treated with AMG 853 at 10 uM after 30 mins by LC-MS/MS analysis; assay type: ADME; settings: recombinant enzyme, 0.5 h
# T3 sequence (P35503 whole entry): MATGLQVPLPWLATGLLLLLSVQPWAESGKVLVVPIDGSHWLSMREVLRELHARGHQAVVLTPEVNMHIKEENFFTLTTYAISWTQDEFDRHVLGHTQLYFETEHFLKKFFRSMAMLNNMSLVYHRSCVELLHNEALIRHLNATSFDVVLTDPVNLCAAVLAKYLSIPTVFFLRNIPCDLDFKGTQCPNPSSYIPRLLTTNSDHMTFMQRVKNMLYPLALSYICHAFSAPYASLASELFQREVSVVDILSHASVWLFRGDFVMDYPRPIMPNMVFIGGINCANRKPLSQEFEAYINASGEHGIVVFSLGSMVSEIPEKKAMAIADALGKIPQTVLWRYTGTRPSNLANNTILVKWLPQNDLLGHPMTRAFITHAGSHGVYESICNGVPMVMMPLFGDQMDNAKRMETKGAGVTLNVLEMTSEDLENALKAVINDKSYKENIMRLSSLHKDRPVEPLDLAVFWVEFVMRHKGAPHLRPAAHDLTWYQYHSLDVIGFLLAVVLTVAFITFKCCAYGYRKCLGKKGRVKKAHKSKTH
# [8] = biological target: T1, UDP-glucuronosyltransferase 1A1; test: Drug metabolism assessed as human recombinant UGT1A1-mediated compound formation treated with AMG 853 after 45 mins by LC-MS/MS analysis in presence of UDPGA; assay type: ADME; settings: recombinant enzyme, 0.75 h
# [9] = Drug metabolism in human liver microsomes assessed as […]-mediated compound formation after 15 mins by LC-MS/MS analysis in presence of UDPGA; assay type: ADME; settings: 0.25 h
"fold induction at 48 h, up to 30 µM (CYP1A2)",Drug metabolism (Cytochrome P450 3A4),"fold induction at 48 h, up to 30 µM (CYP2B6)",Cmax [2] [ng/mL],Drug metabolism (Cytochrome P450 3A5),"fold induction at 48 h, 30 µM (CYP3A4)",Drug metabolism [6],Drug metabolism [7],S50 [8] [µM],Vmax [8] [pmol/min/mg],Drug metabolism [9],Compound,Drug metabolism [1],Drug metabolism [3],Drug metabolism [4],Drug metabolism [5]
1.7,metabolite_detected,1.7,270,metabolite_detected,1.4,–,–,–,–,–,CC(C)(C)NC(=O)c1ccc(Oc2cc(F)c(CC(=O)O)cc2Cl)c(NS(=O)(=O)c2ccc(C3CC3)cc2Cl)c1 [VIDUPIPRANT],metabolite_detected,metabolite_not_detected,metabolite_not_detected,metabolite_detected
–,–,–,–,–,–,metabolite_detected,metabolite_detected,218.4,3.45,metabolite_detected,CC(C)(C)NC(=O)c1ccc(Oc2cc(F)c(CC(=O)O[C@@H]3O[C@H](C(=O)O)[C@@H](O)[C@H](O)[C@H]3O)cc2Cl)c(NS(=O)(=O)c2ccc(C3CC3)cc2Cl)c1,–,–,–,–

# Reference: ChEMBL document CHEMBL3526017, “Predicting the drug interaction potential of AMG 853, a dual antagonist of the D-prostanoid and chemoattractant receptor-homologous molecule expressed on T helper 2 cells receptors” (Drug Metab Dispos, 2012)
